{"source": "patent US20080118494A1", "about": "“Compositions For Detection Of Latent Hiv Reactivation And Methods Of Using The Same” (priority 2004, published 2008)", "tested_on": "latent HIV-1 infection in human PBMCs", "test": "Reactivation of latent HIV-1 in in vitro infected, EGFP-negative sorted human PBMCs", "assay_type": "cell-based", "conditions": "representative donor, 24 h post stimulation, untreated background 0.23%", "protocol": "PBMCs from three different donors were infected with HIV-1 NLENG1-IRES and on day three post infection were treated with indinavir to inhibit de novo infection. On day seven following infection, HIV-1 expressing EGFP^+ cells were removed from the cultures using fluorescence activated cell sorting. (A) Following the sorting procedure, the EGFP-negative cells were cultured in supplemented RPMI 1640 to determine levels of spontaneous reactivation (Control), stimulated with anti-CD3 antibody clone UCHT1 (CD3), the costimulatory anti-CD28 antibody clone CD28.2 (cCD28) and with a combination of these two antibodies (cCD28/CD3). […] Numbers indicate the percentage of EGFP positive cells and the mean channel fluorescence intensity of the EGFP-positive cell population. […]\nIn vitro generation and analysis of HIV-1 latency in PBMCs. […] In the absence of IL-2, the cells were cultured for seven days following infection and then subjected to fluorescence activated cell sorting (FACS) to remove EGFP positive, HIV-1 expressing cells. The EGFP negative cell fraction was then activated with the indicated stimuli and reactivation of latent HIV-1 expression was measured 24 h post stimulation by determining EGFP fluorescence using FACS analysis. […]", "data": [{"smiles": "CCCCCCCCCCCCCC(=O)O[C@@H]1[C@@H](C)[C@@]2(O)[C@@H](C=C(CO)C[C@]3(O)C(=O)C(C)=C[C@@H]23)[C@@H]2C(C)(C)[C@]12OC(C)=O", "note": "[PMA, 13-phorbol-12-myristate acetate]", "values": [{"measurement": "HIV-1 reactivation as percentage of EGFP+ cells", "result": 0.60, "unit": "%"}]}]}
